Laboratory results published in patent US20250338846A1, “COMPOSITIONS HAVING PESTICIDAL UTILITY AND PROCESSES RELATED THERETO” (CORTEVA AGRISCIENCE, LLC, priority 2022, published 2025).

What was measured:
[1] = tested on: Neotropical Brown Stink Bug (Euschistus heros, EUSCHE); assay: whole plant or invertebrate; type: in vivo
Experimental: (§1) X=No. of live nymphs on solvent check and Y=No. of live nymphs on treated bean segments. In Table B4 the “Expected % Control” was calculated using the method described in Colby S. R., Weeds, 1967, 15, 20-22. Bioassay 5: Neotropical Brown Stink Bug (Euschistus heros, EUSCHE) (“BSB”).
Stock solutions were prepared with Formula One as well as for each of the active ingredients individually. Test solutions were prepared from the stock solutions. Test solutions were prepared containing Formula One, the individual active ingredients, and mixtures of Formula One with each of the active ingredients. The test solution for Formula One was prepared by adding 500 μL of the stock solution to a 25 mL glass vial, then adding 500 μL of acetone, followed by the addition of 9 mL water with 0.025% Tween®) 20 to create a 0.04% (w/v) solution. The individual active ingredients were prepared by adding 500 μL of stock solution to a 25 mL glass vial, then adding 500 μL of acetone, followed by the addition of 9 mL water with 0.025% Tween®) 20 to create a 0.005% (w/v) solution. The test solutions containing mixtures of Formula One and the individual active ingredients were prepared by adding 500 μL of the active ingredient stock solution to a 25 mL glass vial, followed by 500 μL of the Formula One stock solution, then by the addition of 9 mL water with 0.025% Tween®) 20 to create a test solution containing 0.04% (w/v) Formula One and 0.005% (w/v) of the active ingredient. Each test solution was serially diluted to create desired doses of test solutions (0.01% (w/v), 0.0025% (w/v), 0.000625% (w/v), 0.000156% (w/v), and 0.000039% (w/v)). In test solutions containing mixtures of Formula One and the active ingredients, the active ingredients were diluted as described above, but the Concentration of Formula One was held constant (0.04% (w/v)).
The test solutions that were tested against BSB were similar to those described above for WTPB. Fresh green beans were cut into segments approximately 1.5 inches long. Four bean segments were added to each test solution and soaked for approximately 15 minutes. After soaking, a single bean fragment was removed and placed into a single well of a 32-well rearing tray (Frontier Agricultural Sciences™), on top of a round filter paper disc. A reference treatment (solvent check) was treated with the diluent only. Each treatment was replicated four times and the test treatments were held at approximately 26° C. and ambient relative humidity (RH) prior to grading. Bean segments were allowed to air dry for ˜30 minutes. Three BSB nymphs were added to and contained in each well with a clear perforated adhesive lid. The total number of living BSB nymphs was recorded 3 days after application. Scoring was based off the total number of living nymphs out of all four replicates. Percent control was measured using Abbott's correction formula (W. S. Abbott, J. Econ. Entomol. 18 (1925), pp. 265-267) as follows:
where X=No. of live nymphs on solvent check and Y=No. of live nymphs on treated bean segments. In Table B5 the “Expected % Control” was calculated using the method described in Colby S. R., Weeds, 1967, 15, 20-22. Bioassay 6: Beet Armyworm (Spodoptera exigua, LAPHEG) (BAW), and Diamondback Moth (Plutella xylostella, PLUTMA) (DBM).

[2] = tested on: Western Tarnished Plant Bug (Lygus hesperus, LYGUHE); assay: Bioassay 4: Western Tarnished Plant Bug, soaked green bean segments, living nymphs 3 days after application; type: in vivo
Experimental: where X=No. of live nymphs on solvent check leaf discs and Y=No. of live nymphs on treated leaf discs. In Table B3 the “Expected % Control” was calculated using the method described in Colby S. R., Weeds, 1967, 15, 20-22. Bioassay 4: Western Tarnished Plant Bug (Lygus hesperus, LYGUHE) (“WTPB”).
Stock solutions were prepared with Formula One as well as for each of the active ingredients individually. Test solutions were prepared from the stock solutions. Test solutions were prepared containing Formula One, the individual active ingredients, and mixtures of Formula One with each of the active ingredients. The test solution for Formula One was prepared by adding 500 μL of the stock solution to a 25 mL glass vial, then adding 500 μL of acetone, followed by the addition of 9 mL water with 0.025% Tween®) 20 to create a 0.04% (w/v) solution. The test solutions of the individual active ingredients were prepared by adding 500 μL of stock solution to a 25 mL glass vial, then adding 500 μL of acetone, followed by the addition of 9 mL water with 0.025% Tween®) 20 to create a 0.005% (w/v) solution. The test solutions containing mixtures of Formula One and the individual active ingredients were prepared by adding 500 μL of the active ingredient stock solution to a 25 mL glass vial, followed by 500 μL of the Formula One stock solution, then by the addition of 9 mL water with 0.025% Tween®) 20 to create a test solution containing 0.04% (w/v) Formula One and 0.005% (w/v) of the active ingredient. Each test solution was serially diluted to create desired doses of test solutions (0.005% (w/v), 0.00125% (w/v), 0.0003125% (w/v), 0.000078% (w/v), and 0.0000195% (w/v)). In test solutions containing mixtures of Formula One and the active ingredients, the active ingredients were diluted as described above, but the Concentration of Formula One was held constant (0.04% (w/v)).
The test solutions were tested against WTPB using the following procedure: Fresh green beans were cut into segments approximately 1.5 inches long. Four bean segments were added to each 25 mL vial containing the test solutions and soaked for approximately 15 minutes. After soaking, a single bean fragment was removed and placed into a single well of a 32-well rearing tray (Frontier Agricultural Sciences™), on top of a round filter paper disc. A reference treatment (solvent check) was treated with the diluent only. Each treatment was replicated four times and the test treatments were held at approximately 26° C. and ambient relative humidity (RH) prior to grading. Bean segments were allowed to air dry for ˜30 minutes. Three WTPB nymphs were added to and contained in each well with a clear perforated adhesive lid. The total number of living WTPB nymphs was recorded 3 days after application. Scoring was based off the total number of living nymphs out of all four replicates. Percent control was measured using Abbott's correction formula (W. S. Abbott, J. Econ. Entomol. 18 (1925), pp. 265-267) as follows:
as §1

[3] = Euschistus heros, 72 h, AI alone 0.000156 % w/v, read-out: Average % Control AI
[4] = Euschistus heros, 72 h, AI alone 0.000625 % w/v

Cc1c(COC(=O)[C@@H]2[C@H](/C=C(\Cl)C(F)(F)F)C2(C)C)cccc1-c1ccccc1 (racemic) [Bifenthrin]
pest or weed control at 0.000156 % strength [1, 3]: 30% | Average % Control AI ([2]; AI alone 0.00125 % w/v): 17%

CC1(C)[C@H](C(=O)O[C@H](C#N)c2cccc(Oc3ccccc3)c2)[C@@H]1/C=C(\Cl)C(F)(F)F (racemic) [Lambda Cyhalothrin]
pest or weed control at 0.000625 % strength [1, 4]: 8% | Average % Control AI ([2]; AI alone 0.000078 % w/v): 0%

COP(=O)(NC(C)=O)SC (centres unmarked) [Acephate]
pest or weed control at 0.0025 % strength ([1]; Euschistus heros, 72 h, read-out: Average % Control AI): 0% | Average % Control AI ([2]; AI alone 0.005 % w/v): 0%

C/C(=N\C#N)N(C)Cc1ccc(Cl)nc1 [Acetamiprid]
Average % Control AI ([2]; AI alone 0.00125 % w/v): 0%

CC[S+]([O-])c1c(C#N)nn(-c2c(Cl)cc(C(F)(F)F)cc2Cl)c1N (centres unmarked) [Ethiprole]
pest or weed control at 3.91e-05 % strength ([1]; Euschistus heros, 72 h, AI alone 0.0000391 % w/v): 0%

CON=CNC(=O)c1ccc(C2=NOC(c3cc(Cl)cc(Cl)c3)(C(F)(F)F)C2)cc1C (centres unmarked) [Fluxametamide]
Average % Control AI ([1]; AI alone 0.000625 % w/v): 17%

CCN(C(=O)CCS(C)(=O)=O)c1sc(-c2cccnc2)nc1Cl [Formula F1, N-(4-chloro-2-(pyridin-3-yl)thiazol-5-yl)-N-ethyl-3-(methylsulfonyl)propanamide]
Average % Control F1 ([1]; F1 alone 0.04 % w/v): 0%

O=[N+]([O-])NC1=NCCN1Cc1ccc(Cl)nc1 [Imidacloprid]
pest or weed control at 0.000625 % strength [1, 4]: 17% | Average % Control AI ([2]; AI alone 0.00125 % w/v): 13%

CN1COCN(Cc2cnc(Cl)s2)/C1=N\[N+](=O)[O-] [Thiamethoxam]
pest or weed control at 0.000156 % strength [1, 3]: 17% | Average % Control AI ([2]; AI alone 0.0003125 % w/v): 65%

Abamectin
Average % Control AI ([1]; AI alone 0.000625 % w/v): 17% | Average % Control AI ([2]; AI alone 0.00125 % w/v): 0%

Emamectin Benzoate
Average % Control AI ([1]; AI alone 0.000156 % w/v): 24%
